Experimental data taken from US20240139197A1, “INHIBITION OF KDM5A FOR PROMOTING ANTIGEN PRESENTATION, INCREASING CD8+ T CELL INFILTRATION AND BOOSTING ANTI-TUMOR IMMUNE RESPONSE” (The Wistar Institute of Anatomy and Biology, priority 2022, published 2024).

How the values were obtained:
HGSOC cell lines = assay: dose response by colony formation assay in HGSOC/EOC cell lines; type: cell-based, human; settings: panel of EOC cell lines, regardless of KDM5A expression status, dose response curve
Excerpt: FIG. 5A-FIG. 5G show KDM5A is overexpressed in HGSOC and its expression negatively correlates with infiltration of CD8+ T cells. (FIG. 5A) Correlation between KDM5A and CD8A expression in the TCGA HGSOC dataset. (FIG. 5B) Correlation between KDM5A and CD8A expression in a published laser capture and microdissected (LCM) HGSOC dataset. (FIG. 5C) Correlation between KDM5A and PRFI expression in the TCGA HGSOC dataset. (FIG. 5D) Representative images of KDM5A IHC staining of HGSOC in a tumor microarray. (FIG. 5E) Relative expression of KDM5A in LCM of HGSOC and normal human ovarian surface epithelial cells (HOSE) or fallopian tube epithelial cells (FTE). (FIG. 5F) Expression of KDM5A and a loading control β-actin in the indicated FTE cells and HGSOC cell lines determined by immunoblot. (FIG. 5G) Dose response curves to KDM5A inhibitor CPI-455 determined by colony formation assay in the indicated HGSOC cell lines. Data represent mean±SEM; P values were calculated by using a two-tailed Student t test except in FIG. 5A and FIG. 5B by using Pearson r analysis.
Insulin/Transferrin/Selenium (Invitrogen, Cat #51300), […] Hydrocortisone (Sigma, Cat #H0135), 10 ng/ml Murine epidermal growth factor (Sigma, Cat #E4127) and 1% penicillin/streptomycin at 37° C.with 5% CO2. […]

[1] = tested on: H2-K1 gene promoter in ID8 cells; assay: ChIP at H2-K1 gene promoter; type: cell-based, mouse; settings: ID8, IFNγ, anti-H3K4me3 ChIP
Excerpt: FIG. 4A-FIG. 4M show KDM5A regulates antigen processing and presentation pathway. (FIG. 4A) Experimental strategy used to identify Kdm5a direct target genes. […] (FIG. 4B) CUT&RUN tracks of the newly identified Kdm5a target gene H2-K1 for Kdm5a and H3K4me3 in ID8 cells. (FIG. 4C) Expression of H2-K1 in doxycycline-inducible shKdm5a ID8 cells, Kdm5a inhibitor CPI-455, or Kdm5a knockout cells with or without IFNγ stimulation determined by RT-qPCR. (FIG. 4D) Cell surface expression of H2-K1 in control and Kdm5a knockout ID8 cells with or without IFNy stimulation was determined by FACS analysis. (FIG. 4E) Quantification of FIG. 4D. (FIG. 4F) Cell surface expression of H2-K1 in control and doxycyclineinducible Kdm5a-knockdown ID8 cells with or without IFNγ stimulation was determined by FACS analysis. (FIG. 4G) Quantification of FIG. 4F. (FIG. 4H) Cell surface expression of H2-K1 in D8 cells treated with vehicle or CPI-455 with or without IFNγ stimulation was determined by FACS analysis. (FIG. 4I) Quantification of FIG. 4H; An isotype matched IgG was used as a negative control for all the FACS analysis. […] Data represent mean±SEM of three biological repeats; P-value was calculated by using a two-tailed Student t test except in FIG. 4L by using Pearson r analysis test and FIG. 4M by using Fisher's exact test. […]

CPI-455
cell viability in vitro (HGSOC cell lines): did not affect cell viability
association of H3K4me3 with H2-K1 gene promoter [1]: increased the association of H3K4me3
